Like-named read-outs stand apart in the source and are kept apart here.
Tested on: panel of 183 cancer cell lines
Experiment: Cell panel of 183 cancer cell lines, viability (CTG) at Crown Bioscience
Type: cell-based
Conditions: Homo sapiens
Excerpt: The panel consisted of cell lines with any substitution at position 12 of KRAS, NRAS or HRAS (KRAS(G12X), NRAS(G12X), HRAS(G12X)); substitutions in KRAS, NRAS or HRAS at any position other than 12, 13 and 61 (KRAS(other/VUS), NRAS(other/VUS), HRAS(other/VUS)); other oncogenic mutations in the RAS pathway (ABL1, ALK, ARAF, BRAF, CBL, EGFR, ERBB2, ERBB3, ERBB4, ERRFI1, FGFR1, FGFR2, FGFR3, FGFR4, FLT3, HRAS, IGF1R, JAK2, KIT, MAP2K1, MAP2K2, MAPK1, MET, NF1, NRAS, NTRK1, NTRK2, NTRK3, PDGFRA, PTPN11, RAC1, RAF1, RASA1, RET, RIT1, ROS1 and SOS1); and no oncogenic mutations in the RAS pathway. […] Cells were incubated for 120 h, and cell viability was determined using the CellTiter-Glo Luminescent Cell Viability Assay (CTG) (Promega, G7572) according to the manufacturer’s instructions.

In the case of `CCn1c(-c2cc(N3CCN(C4CC4)CC3)cnc2[C@H](C)OC)c2c3cc(ccc31)-c1csc(n1)C[C@H](NC(=O)[C@H]1[C@@H]3COC[C@@H]31)C(=O)N1CCC[C@H](N1)C(=O)OCC(C)(C)C2` [RMC-7977], the EC50 (OVCAR-5, read-out: RMC-7977 EC50 (M), OVCAR5, KRAS G12V, Ovary) is reported as 1.02e-09 M, the EC50 (OVCAR-8, read-out: RMC-7977 EC50 (M), OVCAR8, KRAS P121H, Ovary) is reported as greater than 1e-06 M and the EC50 (PANC-1, read-out: RMC-7977 EC50 (M), PANC1, KRAS G12D, Pancreas) is reported as 1.66e-09 M. For the same compound, the EC50 (PANC-03-27, read-out: RMC-7977 EC50 (M), PANC0327, KRAS G12V, Pancreas) was 3.39e-10 M, the EC50 (PL45, read-out: RMC-7977 EC50 (M), PL45, KRAS G12D, Pancreas) was 3.31e-08 M and the EC50 (PSN1, read-out: RMC-7977 EC50 (M), PSN1, KRAS G12R, Pancreas) was 3.24e-09 M. For the same compound, the EC50 (PTPN11^MUT cell lines, read-out: median EC50) was 7.95e-09 M, the EC50 (Panc 05.04, read-out: RMC-7977 EC50 (M), PANC0504, KRAS G12D, Pancreas) was 1.62e-09 M and the EC50 (Panc1005, read-out: RMC-7977 EC50 (M), PANC1005, KRAS G12D, Pancreas) was 2.34e-09 M. It also gave an EC50 (RAS pathway wild-type (WT) cell lines, read-out: median EC50) of 7.15e-08 M, an EC50 (RL95-2, read-out: RMC-7977 EC50 (M), RL952, HRAS Q61H, Uterus) of 4.57e-09 M and an EC50 (RT112/84, read-out: RMC-7977 EC50 (M), RT11284, FGFR fusion, Bladder) of 4.87e-09 M. The EC50 (SCC-9, read-out: RMC-7977 EC50 (M), SCC9, HRAS L133R, HN/Tongue) was 1.23e-08 M, the EC50 (SHP77, read-out: RMC-7977 EC50 (M), SHP77, KRAS G12V, Lung) was greater than 1e-06 M and the EC50 (SK-BR-3, read-out: RMC-7977 EC50 (M), SKBR3, MET amp, Breast) was greater than 1e-06 M. It also gave an EC50 (SK-CO-1, read-out: RMC-7977 EC50 (M), SKCO1, KRAS G12V, Large intestine/Colorectum) of 1.05e-09 M, an EC50 (SK-LMS-1, read-out: RMC-7977 EC50 (M), SKLMS1, NF1 LOF, Vulva) of 6.33e-09 M and an EC50 (SK-LU-1, read-out: RMC-7977 EC50 (M), SKLU1, KRAS G12D, Lung) greater than 1e-06 M. The EC50 (SK-MEL-2, read-out: RMC-7977 EC50 (M), SKMEL2, NRAS Q61R, Skin) was 9.12e-09 M, the EC50 (SK-N-AS, read-out: RMC-7977 EC50 (M), SKNAS, NRAS Q61K, Brain&Nerves) was 1.91e-09 M and the EC50 (SK-N-FI, read-out: RMC-7977 EC50 (M), SKNFI, RAS pathway WT, Brain&Nerves) was 3.82e-08 M. It also gave an EC50 (SK-N-SH, read-out: RMC-7977 EC50 (M), SKNSH, NRAS Q61K, Brain&Nerves) of 2.4e-07 M, an EC50 (SK-OV-3, read-out: RMC-7977 EC50 (M), SKOV3, RAS pathway WT, Ovary) of 5.38e-08 M and an EC50 (SNU1, read-out: RMC-7977 EC50 (M), SNU1, KRAS G12D, Stomach) of 7.76e-09 M. The EC50 (SNU668, read-out: RMC-7977 EC50 (M), SNU668, KRAS Q61K, Stomach) was 4.57e-09 M, the EC50 (SNU-5, read-out: RMC-7977 EC50 (M), SNU5, MET amp, Stomach) was 3.86e-09 M and the EC50 (SNU-387, read-out: RMC-7977 EC50 (M), SNU387, NRAS Q61K, Liver) was 5.01e-09 M. It also gave an EC50 (SNU-398, read-out: RMC-7977 EC50 (M), SNU398, RAS pathway WT, Liver) greater than 1e-06 M, an EC50 (SNU-601, read-out: RMC-7977 EC50 (M), SNU601, KRAS G12D, Stomach) of 3.09e-09 M and an EC50 (SU-DHL-1, read-out: RMC-7977 EC50 (M), SUDHL1, ALK fusion, Blood/lymphoma) of 7.61e-08 M. For the same compound, the EC50 (SU.86.86, read-out: RMC-7977 EC50 (M), SU8686, KRAS G12D, Pancreas) was 2.45e-09 M, the EC50 (SUM-159-PT, read-out: RMC-7977 EC50 (M), SUM159PT, HRAS G12D, Breast) was 2.45e-09 M and the EC50 (SW48, read-out: RMC-7977 EC50 (M), SW48, HRAS G161R, Large intestine/Colorectum) was greater than 1e-06 M. For the same compound, the EC50 (SW480, read-out: RMC-7977 EC50 (M), SW480, KRAS G12V, Large intestine/Colorectum) was 2.57e-09 M, the EC50 (SW626, read-out: RMC-7977 EC50 (M), SW626, KRAS G12V, Ovary) was 1.82e-09 M and the EC50 (SW684, read-out: RMC-7977 EC50 (M), SW684, NF1 LOF, Soft tissue) was 3.68e-08 M. It also gave an EC50 (SW756, read-out: RMC-7977 EC50 (M), SW756, KRAS G12C, Ovary) of 1.17e-08 M, an EC50 (SW780, read-out: RMC-7977 EC50 (M), SW780, FGFR fusion, Bladder) of 5e-09 M and an EC50 (SW837, read-out: RMC-7977 EC50 (M), SW837, KRAS G12C, Large intestine/Colorectum) of 1.7e-09 M. The EC50 (SW900, read-out: RMC-7977 EC50 (M), SW900, KRAS G12V, Lung) was 4.07e-09 M, the EC50 (SW948, read-out: RMC-7977 EC50 (M), SW948, KRAS Q61L, Large intestine/Colorectum) was 1.45e-08 M and the EC50 (SW 1116, read-out: RMC-7977 EC50 (M), SW1116, KRAS G12A, Large intestine/Colorectum) was 1.82e-08 M. The EC50 (SW1271, read-out: RMC-7977 EC50 (M), SW1271, NRAS Q61R, Lung) was 2.19e-09 M, the EC50 (SW1463, read-out: RMC-7977 EC50 (M), SW1463, KRAS G12C, Large intestine/Colorectum) was 7.59e-09 M and the EC50 (SW1573, read-out: RMC-7977 EC50 (M), SW1573, KRAS G12C, Lung) was greater than 1e-06 M. It also gave an EC50 (SW1783, read-out: RMC-7977 EC50 (M), SW1783, RAS pathway WT, Brain&Nerves) of 4.53e-08 M, an EC50 (SW1990, read-out: RMC-7977 EC50 (M), SW1990, KRAS G12D, Pancreas) of 1.02e-09 M and an EC50 (SW-403, read-out: RMC-7977 EC50 (M), SW403, KRAS G12V, Large intestine/Colorectum) of 1.15e-09 M. The EC50 (SW-620, read-out: RMC-7977 EC50 (M), SW620, KRAS G12V, Large intestine/Colorectum) was 9.55e-10 M, the EC50 (TOV21G, read-out: RMC-7977 EC50 (M), TOV21G, KRAS G13C, Ovary) was 1.41e-08 M and the EC50 (U-87 MG, read-out: RMC-7977 EC50 (M), U87MG, NF1 LOF, Brain&Nerves) was 2.81e-08 M. The EC50 (U-118-MG, read-out: RMC-7977 EC50 (M), U118MG, ROS1 fusion, GBM) was 5.95e-08 M, the EC50 (UMUC3, read-out: RMC-7977 EC50 (M), UMUC3, KRAS G12C, Bladder) was 4.17e-10 M and the EC50 (cell lines with NF1 loss of function and PTPN11 mutations, read-out: median EC50) was 2.81e-08 M. It also gave an EC50 (cell lines with mutationally activated RTKs (RTK^MUT/fusion), read-out: median EC50) of 6.14e-09 M, an EC50 (cell lines with wild-type MET gene amplification (MET^AMP), read-out: median EC50) of 6.61e-09 M and an EC50 (non-G12 mutant KRAS cell lines, read-out: median EC50) of 2.51e-08 M. The EC50 (read-out: RMC-7977 EC50 (M), AGS, KRAS G12D, Lung) was 1.15e-09 M, the EC50 (read-out: RMC-7977 EC50 (M), ASH3, NRAS Q61R, HN/Thyroid) was 9.77e-09 M and the EC50 (read-out: RMC-7977 EC50 (M), HCC2279, EGFR mut, Lung) was 4.52e-09 M.
